Patent US20090215669A1, “COMPOSITIONS AND METHODS FOR TREATMENT OF DIABETES” (DIA-B TECH LIMITED, priority 2005, published 2009)
“And” between values parts separate entries of the source, which are not always exact repeats. Equal entries are not always repeated. Ends that are not written are not given here. Peptide text beside a SMILES is read from it.

Legend:
Zinc-insulin hexamers = molecular target: T1, Zinc-insulin hexamers (Bos taurus, UniProt P01317); experiment: Circular dichroism of zinc-insulin hexamers (dispersal); format: biochemical, bovine; details: Zn-insulin 1 mg/mL; for CD signal at 275 nm of Zn-insulin upon addition: ISF401 1 μL of 100 mM, EDTA 4 mM
T1 construct: Zinc-insulin hexamers were prepared by dissolving bovine insulin containing 0.6% zinc
T1 sequence (P01317 25-54 limits assumed): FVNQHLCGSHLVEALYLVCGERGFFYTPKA
T1 sequence (P01317 85-105 limits assumed): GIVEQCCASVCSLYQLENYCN
Experimental: Zinc-insulin hexamers were prepared by dissolving bovine insulin containing 0.6% zinc in […] then raising the pH to 7.2-7.4 by addition of NaOH. HEPES buffer was added to give a final solution of 1 mg/mL insulin in 25 mM HEPES buffer (pH 7.2). The CD spectrum of insulin or ISF401 was measured from […] at 20° C. on a Jasco J-810 spectropolarimeter equipped with a PFD 423S/L Peltier type temperature controller. 200 μL of sample was placed in a quartz cuvette, with path length of 1 mm, in the spectropolarimeter and the CD spectrum was recorded. Each spectrum represents an average of 3-5 scans performed at 100 nm/min with a band width of 1 nm. The effect of ethylenediamine tetraacetic acid (EDTA) and ISF401 were measured by adding an aliquot of EDTA (4 mM) or an aliquot of ISF401 (100 mM) and measuring the CD spectrum.
To test dispersal of insulin hexamers by ISF401, circular dichroism (CD) was used.
The CD signal at 275 nm was used to measure the association state of insulin in the presence of ISF401 (1 μL of 100 mM), EDTA ([…] of 4 mM) and deionised water (1 μL).

hexameric insulin = molecular target: T2, hexameric insulin (Homo sapiens, UniProt P01308); experiment: Size exclusion chromatography of hexameric insulin with test peptide; format: biochemical
T2 construct: correspond to dimeric insulin (11.8 kDa) and monomeric (5.8 kDa) insulin respectively; purchased Sigma 19278
T2 sequence (P01308 25-54 limits assumed): as the sequence (P01317 25-54 limits assumed) above, with A30T counted along it
T2 sequence (P01308 90-110 limits assumed): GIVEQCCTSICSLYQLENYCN
Experimental: Size exclusion chromatography was used to study the effect of GHTD-amide (ISF401) on hexameric insulin. Recombinant Human Insulin solution (Sigma 19278) was diluted to 2 mg/mL with 10 mM Tris pH 7.4 and dialysed against 10 mM Tris pH 7.4 (to remove HEPES which absorbs strongly at 214 nm and coelutes with GHTD-amide). Insulin stock solution at 1.5 mg/mL was then prepared by addition of phenol to 4 mM, NaCl to 140 mM and ZnCl2 to 100 μM. Prior to size exclusion chromatography stock insulin was mixed either with water or test peptide to give a final concentration 1 mg/mL each of insulin and test peptide when applicable, and 10 mM Tris pH 7.4, 140 mM NaCl and […] ZnCl2 then incubated at room temperature for 1 hour. Samples of insulin or mixtures (800 μL) were then subjected to size exclusion chromatography using a 1×30 cm Superdex 75 HR 10/30 column at a flow rate of 0.1 mL min^−1 with an eluent comprising Tris-buffered isotonic saline (140 mM NaCl, 10 mM Tris/HCl pH 7.4, 60 μM ZnCl2) at a flow rate of 0.1 mL min^−1, UV detection at 214 nm and 276 nm, and collection of 0.5 mL fractions for protein determination. Protein size standards Aprotinin (6 kDa) and Carbonic Anhydrase (29 kDa) run under the same conditions eluted at 18.85 mL and 14.75 mL respectively. The gel matrix, which has a fractionation range of 3,000 to 70,000 Da, and sample volume loaded were chosen to ensure that the two peptides remained in contact within the gel matrix thereby allowing interaction to occur between the two during the separation process. The concentration of insulin was maintained at 1 mg/mL at pH 7.4 in the presence of 2 Zn^2+/hexamer since it has been shown that at this concentration insulin exists predominantly as Zn^2+-dependent hexamers.

[1] = Intravenous administration of 14C-ISF402: radioactivity in blood and serum; format: in vivo, rat
Experimental: (§1) ^14C-ISF402 (22.7 μCi/mg) was dissolved in water and diluted with unlabelled ISF402 to a concentration of 30 mg/mL for oral and 4.5 mg/mL for intravenous (IV) administration. The day before the experiment 16-18 week female Zucker fa/fa rats (300-400 g) rats were fasted overnight with free access to water before oral administration of ^14C-ISF402 by gavage at 30 mg/kg, 260-263.7 kBq/kg (5.0-5.1 μCi/kg) or IV with 4.5 mg/kg, 103.0-107.3 kBg/kg (1.98-2.06 μCi/kg). After administration of ^14C-ISF402 rats were placed into metabolic cages with free access to food and water.
(§2) Blood samples were collected from the tail vein over the 7 hour time course. Urine was collected at 4 and 12 hours after administration. Whole blood samples (100 μL) were collected and placed into dry ice then stored at −80° C. 50 μL of serum from whole blood was collected into T-MG clotting capiject tubes (Terumo, Elkton, Md.). Sera were separated by centrifuging blood for 90 seconds at 3000×g at room temperature. 100 μL and 50 μL of whole blood and serum, respectively was used for the measurement of radioactivity. The whole blood and serum samples were solubilized with 2 volumes of sample, 2 volumes of 1.4M NaOH and 1 volume of 30 percent hydrogen peroxide. The final volume was made to 1 mL by the addition of distilled water. 4 mL of HiSafe3 Optiphase (PerkinElmer, Boston, Mass.) was added and radioactivity determined in a Wallac Scintillation counter.
(§3) Urine was frozen at −20° C. until analysed for radioactivity. After measuring the total volume of urine, 100 μL of urine and 100 μL ethanol was added to 4 mL scintillant. Samples were left overnight after the addition of scintillant then counted for radioactivity using a Wallac 1409 liquid scintillant counter (PerkinElmer, Boston, Mass.). Radioactivity in all samples was counted several times over the course of 4 weeks until readings were consistent. Radioactivity was expressed as μg equivalent (eq.)/mL. This was calculated from the dpm per mL of sample divided by the specific radioactivity of the peptide administered. The integrity of the radiolabelled peptide in serum and urine samples was determined by reverse phase HPLC as described above.

[2] = Oral administration of 14C-ISF402: radioactivity in blood, serum and urine; format: in vivo, rat
Experimental: as §1, §2, §3

female Zucker fa/fa rats = experiment: Intravenous injection of female Zucker fa/fa rats: blood glucose, serum insulin, C-peptide, triglyceride; format: in vivo, rat; details: iv, Lispro insulin 1 U/kg alone, 60 minutes after injection
[3] = after incubation with test peptide, 276 nm
[4] = IV 4.5 mg/kg, 2 minutes after injection
[5] = IV 4.5 mg/kg, 90 minutes after injection, assuming radioactivity is intact ISF402

Gly-His-Thr-Asp-NH2 (GHTD-NH2) [ISF401]
molar excess to insulin at maximum dispersion of insulin hexamers (Zinc-insulin hexamers): 10 fold
CD signal at 275 nm of Zn-insulin upon addition (Zinc-insulin hexamers): increased
dissociation of hexameric insulin after incubation with test peptide (hexameric insulin; 1 mg/mL each of insulin and peptide, 1 hour room temperature, monitoring at 276 nm): cause the dissociation (disaggregation) of hexamers to dimeric and monomeric forms
elution volume of emerging peak corresponding to dimeric insulin (11.8 kDa) (hexameric insulin; [3]): 15.085 mL
elution volume of emerging peak corresponding to monomeric (5.8 kDa) insulin (hexameric insulin; [3]): 19.045 mL

O=C(O)CN(CCN(CC(=O)O)CC(=O)O)CC(=O)O [EDTA, ethylenediamine tetraacetic acid, reference compound]
CD signal at 275 nm of Zn-insulin upon addition (Zinc-insulin hexamers): increased

CC(C)[C@H](N)C(=O)N[C@@H](Cc1c[nH]cn1)C(=O)N[C@H](C(=O)N[C@@H](CC(=O)O)C(N)=O)[C@@H](C)O [14C-ISF402] (H-VHTD-NH2)
concentration in serum (radioactivity) [1, 4]: 24800 ± 300 ng/mL
concentration in whole blood (radioactivity) [1, 4]: 12000 ± 1000 ng/mL
concentration in serum (radioactivity) [1, 5]: 8000 ± 2000 ng/mL
concentration in whole blood (radioactivity) [1, 5]: 3400 ± 1300 ng/mL
level at 7 h ([1]; rat, in vivo, IV 4.5 mg/kg, 7 hours, read-out: concentration detected at the conclusion of the time course): 2200 ± 1500 ng/mL
integrity of peptide in serum by reverse phase HPLC ([1]; serum collected 2 minutes after IV administration): intact
concentration in whole blood and sera ([2]; 30 minutes after oral dosing): Approximately 4 μg/mL
time to appearance in the circulation after dosing ([2]; oral 30 mg/kg): ≤ 30 min
concentration in whole blood (radioactivity) ([2]; oral 30 mg/kg, 7 hours): 44200 ± 2500 ng/mL
concentration in sera (radioactivity) ([2]; oral 30 mg/kg, after 90 minutes): 22100 ± 4900 ng/mL
concentration in whole blood (radioactivity) ([2]; oral 30 mg/kg, after 90 minutes, assuming labelled ISF402 still intact): 23700 ± 2100 ng/mL
level at 2 h ([2]; rat, in vivo, 30 mg/kg, 120 minutes after oral dosing, read-out: ISF402 levels in the circulation): > 20000 ng/mL
composition of radioactivity in urine ([2]; urine collected over 4 hours after dosing): mixture of degraded peptide and intact ISF402
share of radioactivity in urine associated with intact ISF402 ([2]; urine collected over 12 hours after administration): 47% and 46%
radioactivity retrieved in urine, of the total radioactive ISF402 administered ([2]; urine, 12 hours): 0.97±0.13%
share of radioactivity in urine associated with free Valine ([2]; urine, 12 hours after administration): 32%

Lispro insulin: altered form of human insulin that does not form stable hexamers; Lispro (Humalog), Eli Lilly [reference compound]
reduction in blood glucose (female Zucker fa/fa rats): 0.90 ± 0.77 mmol/L
